Where a name gives a salt, the structure may show the parent alone.
Test system: not given
Test: not given
Settings: not given

SMILES | melting point
c1ccc2[nH]c(Oc3ccc(-c4c5n(c6cccnc46)CCCC5)cc3)nc2c1 [Example 13, 10-[4-(1H-Benzimidazol-2-yloxy)phenyl]-6,7,8,9-tetrahydropyrido[2,3-b]indolizine] | 264 °C (dec.)
CCn1nc(-c2ccc(Oc3nc4ccccc4n3CCO)cc2)c2ncccc21 [Example 29, 2-{2-[4-(1-Ethyl-1H-pyrazolo[4,3-b]pyridin-3-yl)phenoxy]-1H-benzimidazol-1-yl}ethanol] | 183 to 184 °C

Second part, the compound after the results:

melting point | SMILES
176 to 177 °C | CCn1nc(-c2ccc(Oc3nc4cccnc4n3C)cc2)c2ncccc21 [Example 14, 1-Ethyl-3-{4-[(3-methyl-3H-imidazo[4,5-b]pyridin-2-yl)oxy]phenyl}-1H-pyrazolo[4,3-b]pyridine]
163 to 164 °C | CC(C)n1nc(-c2ccc(Oc3nc4cccnc4n3C)cc2)c2ncccc21 [Example 18, 1-(1-Methylethyl)-3-{4-[(3-methyl-3H-imidazo[4,5-b]pyridin-2-yl)oxy]phenyl}-1H-pyrazolo[4,3-b]pyridine]
161 to 162 °C | CCn1nc(-c2ccc(Oc3nc4cccnc4n3C)cc2)c2nccnc21 [Example 28, 1-Ethyl-3-{4-[(3-methyl-3H-imidazo[4,5-b]pyridin-2-yl)oxy]phenyl}-1H-pyrazolo[3,4-b]pyrazine]
152 to 153 °C | CCn1nc(-c2ccc(Oc3nc4ccccc4n3CC(C)(C)O)cc2)c2ncccc21 [Example 36, 1-{2-[4-(1-Ethyl-1H-pyrazolo[4,3-b]pyridin-3-yl)phenoxy]-1H-benzimidazol-1-yl}-2-methylpropan-2-ol]
218 to 220 °C | CCn1nc(-c2ccc(Oc3nc4cccnc4n3C)cc2)c2ncncc21 [Example 38, 1-Ethyl-3-{4-[(3-methyl-3H-imidazo[4,5-b]pyridin-2-yl)oxy]phenyl}-1H-pyrazolo[4,3-d]pyrimidine]

Target: T1, Human PDE10A enzyme (Homo sapiens, UniProt Q9Y233)
T1 construct: Sf9 or COS-7 cells transfected with the full-length gene; His-tag; made in house; host or cells: Sf9 or COS-7 cells
Test: PDE enzyme inhibition (SPA, [3H]cGMP)
Format: biochemical
Settings: 1 μM compound, [3H]cGMP substrate
Experimental: Human PDE10A enzyme was generated from Sf9 or COS-7 cells transfected with the full-length gene. Cloned enzyme was extracted from homogenized cell pellets. The extracted enzyme from sf9 cells was partially purified using His-tag affinity column. The enzyme was stored at −70° C. until use. PDE activity was measured using a SPA (Scintillation Proximity Assay) (GE Healthcare). To evaluate the inhibitory activity, 10 μL of serial diluted compounds were incubated with 20 μL of PDE enzyme in assay buffer (50 mM HEPES-NaOH, 8.3 mM MgCl2, 1.7 mM EGTA, 0.1% BSA (pH 7.4)) for 30 min. at room temperature. Final concentration of DMSO in the assay was 1 percent as compounds were tested in duplicate in 96-well half-area plates (Corning). To start the reaction, 10 μL of substrate [^3H] cGMP (25 or 50 nM; enclosed in SPA kits from GE Healthcare or purchased from PerkinElmer, respectively) was added for a final assay volume of 40 μL. After 60 min incubation at room temperature, yttrium SPA beads containing Zinc sulphate were added (20 μL at 6 mg/mL) to terminate the PDE reaction. After being settled for 60 min, assay plates were counted in a scintillation counter (PerkinElmer) to allow calculation of inhibition rate. Inhibition rate was calculated on the basis of 0% control wells with DMSO and 100% control wells without enzyme.

T1 sequence (Q9Y233 267-1055): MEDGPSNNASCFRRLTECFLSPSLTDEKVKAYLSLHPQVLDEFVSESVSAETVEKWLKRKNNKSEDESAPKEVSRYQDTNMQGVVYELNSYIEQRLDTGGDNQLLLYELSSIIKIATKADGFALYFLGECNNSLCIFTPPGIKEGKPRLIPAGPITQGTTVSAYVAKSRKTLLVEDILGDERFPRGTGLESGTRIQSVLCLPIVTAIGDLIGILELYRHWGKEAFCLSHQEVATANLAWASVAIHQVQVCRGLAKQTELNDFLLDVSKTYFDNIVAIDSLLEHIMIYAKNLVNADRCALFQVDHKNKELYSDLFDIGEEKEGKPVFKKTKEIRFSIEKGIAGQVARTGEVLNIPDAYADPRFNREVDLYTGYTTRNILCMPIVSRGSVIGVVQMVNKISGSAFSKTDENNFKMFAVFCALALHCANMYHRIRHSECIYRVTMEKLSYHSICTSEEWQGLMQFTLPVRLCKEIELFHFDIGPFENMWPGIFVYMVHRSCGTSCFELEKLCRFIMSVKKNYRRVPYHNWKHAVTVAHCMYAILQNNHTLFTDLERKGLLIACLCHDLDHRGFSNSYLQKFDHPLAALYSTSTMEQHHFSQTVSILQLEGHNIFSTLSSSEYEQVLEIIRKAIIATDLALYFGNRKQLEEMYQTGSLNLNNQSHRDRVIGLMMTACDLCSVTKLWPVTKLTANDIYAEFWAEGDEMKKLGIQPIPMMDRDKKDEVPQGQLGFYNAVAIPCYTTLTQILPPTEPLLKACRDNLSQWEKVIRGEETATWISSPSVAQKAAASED

SMILES | inhibition at 1 µM
Cn1cc(-c2ccc(Nc3nc4ccccc4o3)cc2)c2ncccc21 [Example 1, N-[4-(1-Methyl-1H-pyrrolo[3,2-b]pyridin-3-yl)phenyl]-1,3-benzoxazol-2-amine hydrochloride] | 97.6%
CCn1nc(-c2ccc(Oc3nc4ccccc4[nH]3)cc2)c2ncccc21 [Example 3, 3-[4-(1H-Benzimidazol-2-yloxy)phenyl]-1-ethyl-1H-pyrazolo[4,3-b]pyridine] | 97.7%
CCn1nc(-c2ccc(C(=O)c3nc4ccccc4n3C)cc2)c2ncccc21 [Example 6, [4-(1-Ethyl-1H-pyrazolo[4,3-b]pyridin-3-yl)phenyl] (1-methyl-1H-benzimidazol-2-yl)methanone] | 95%
CCn1nc(-c2ccc3c(c2)CCN3c2nc3ccccc3[nH]2)c2ncccc21 [Example 7, 3-[1-(1H-Benzimidazol-2-yl)-2,3-dihydro-1H-indol-5-yl]-1-ethyl-1H-pyrazolo[4,3-b]pyridine] | 101%
CCn1nc(-c2ccc(Oc3cn4ccccc4n3)cc2)c2ncccc21 [Example 8, 1-Ethyl-3-[4-(imidazo[1,2-a]pyridin-2-yloxy)phenyl]-1H-pyrazolo[4,3-b]pyridine hydrochloride] | 100%
CCn1nc(-c2ccc(Oc3nc4ccccc4[nH]3)nc2)c2ncccc21 [Example 10, 3-[6-(1H-Benzimidazol-2-yloxy)pyridin-3-yl]-1-ethyl-1H-pyrazolo[4,3-b]pyridine] | 99%
c1ccc2[nH]c(Oc3ccc(-c4c5n(c6cccnc46)CCCC5)cc3)nc2c1 [Example 13, 10-[4-(1H-Benzimidazol-2-yloxy)phenyl]-6,7,8,9-tetrahydropyrido[2,3-b]indolizine] | 103%
CCn1nc(-c2ccc(C3CCn4c3nc3ccccc34)cc2)c2ncccc21 (centres unmarked) [Example 24, 3-[4-(1-Ethyl-1H-pyrazolo[4,3-b]pyridin-3-yl)phenyl]-2,3-dihydro-1H-pyrrolo[1,2-a]benzimidazole] | 99%
CCn1nc(-c2ccc(Oc3nc4cccnc4n3CCOC)cc2)c2ncc(F)cc21 [Example 48, 1-Ethyl-6-fluoro-3-(4-{[3-(2-methoxyethyl)-3H-imidazo[4,5-b]pyridin-2-yl]oxy}phenyl)-1H-pyrazolo[4,3-b]pyridine] | 104%
COCCn1c(Oc2ccc(-c3nn(CC(F)F)c4cc(F)cnc34)cc2)nc2cccnc21 [Example 49, 1-(2,2-Difluoroethyl)-6-fluoro-3-(4-{[3-(2-methoxyethyl)-3H-imidazo[4,5-b]pyridin-2-yl]oxy}phenyl)-1H-pyrazolo[4,3-b]pyridine] | 103%
COCCn1c(Oc2ccc(-c3nn(C)c4cc(F)cnc34)cc2)nc2cccnc21 [Example 50, 6-Fluoro-3-(4-{[3-(2-methoxyethyl)-3H-imidazo[4,5-b]pyridin-2-yl]oxy}phenyl)-1-methyl-1H-pyrazolo[4,3-b]pyridine] | 100%

Further lines, results first:

inhibition at 1 µM | SMILES
98.7% | CCn1nc(-c2ccc(Oc3nc4ccccc4n3C)cc2)c2ncccc21 [Example 4, 1-Ethyl-3-{4-[(1-methyl-1H-benzimidazol-2-yl)oxy]phenyl}-1H-pyrazolo[4,3-b]pyridine]
100% | CC(C)n1nc(-c2ccc(Oc3nc4cccnc4n3C)cc2)c2ncccc21 [Example 18, 1-(1-Methylethyl)-3-{4-[(3-methyl-3H-imidazo[4,5-b]pyridin-2-yl)oxy]phenyl}-1H-pyrazolo[4,3-b]pyridine]
101% | CCn1nc(-c2ccc(Oc3nc4cccnc4n3C)cc2)c2nccnc21 [Example 28, 1-Ethyl-3-{4-[(3-methyl-3H-imidazo[4,5-b]pyridin-2-yl)oxy]phenyl}-1H-pyrazolo[3,4-b]pyrazine]
105% | CCn1nc(-c2ccc(Oc3nc4cccnc4n3CCOC)cc2)c2ncccc21 [Example 34, 1-Ethyl-3-(4-{[3-(2-methoxyethyl)-3H-imidazo[4,5-b]pyridin-2-yl]oxy}phenyl)-1H-pyrazolo[4,3-b]pyridine]
93% | COCCn1c(Oc2ccc(-c3nn(C(C)C)c4cccnc34)cc2)nc2cccnc21 [Example 35]
99% | CCn1nc(-c2ccc(Oc3nc4ccccc4n3CC(C)(C)O)cc2)c2ncccc21 [Example 36, 1-{2-[4-(1-Ethyl-1H-pyrazolo[4,3-b]pyridin-3-yl)phenoxy]-1H-benzimidazol-1-yl}-2-methylpropan-2-ol]
101% | CCn1nc(-c2ccc(Oc3nc4cccnc4n3C)cc2)c2ncc(F)cc21 [Example 37, 1-Ethyl-6-fluoro-3-{4-[(3-methyl-3H-imidazo[4,5-b]pyridin-2-yl)oxy]phenyl}-1H-pyrazolo[4,3-b]pyridine]
103% | CCn1nc(-c2ccc(Oc3nc4cccnc4n3C)cc2)c2ncncc21 [Example 38, 1-Ethyl-3-{4-[(3-methyl-3H-imidazo[4,5-b]pyridin-2-yl)oxy]phenyl}-1H-pyrazolo[4,3-d]pyrimidine]
102% | Cn1c(Oc2ccc(-c3nn(CC(F)F)c4cccnc34)cc2)nc2cccnc21 [Example 39, 1-(2,2-Difluoroethyl)-3-{4-[(3-methyl-3H-imidazo[4,5-b]pyridin-2-yl)oxy]phenyl}-1H-pyrazolo[4,3-b]pyridine]
101% | CC(C)n1nc(-c2ccc(Oc3nc4cccnc4n3C)cc2)c2ncc(F)cc21 [Example 40, 6-Fluoro-1-(1-methylethyl)-3-{4-[(3-methyl-3H-imidazo[4,5-b]pyridin-2-yl)oxy]phenyl}-1H-pyrazolo[4,3-b]pyridine]
107% | Cn1nc(-c2ccc(Oc3nc4cccnc4n3C)cc2)c2ncccc21 [Example 44, 1-Methyl-3-{4-[(3-methyl-3H-imidazo[4,5-b]pyridin-2-yl)oxy]phenyl}-1H-pyrazolo[4,3-b]pyridine]
95% | Cn1nc(-c2ccc(Oc3nc4cccnc4n3C)cc2)c2ncc(F)cc21 [Example 45, 6-Fluoro-1-methyl-3-{4-[(3-methyl-3H-imidazo[4,5-b]pyridin-2-yl)oxy]phenyl}-1H-pyrazolo[4,3-b]pyridine]
102% | Cn1c(Oc2ccc(-c3nn(CC(F)F)c4cc(F)cnc34)cc2)nc2cccnc21 [Example 51]
101% | COCCn1c(Oc2ccc(-c3nn(CC(F)F)c4cccnc34)cc2)nc2cccnc21 [Example 52, 1-(2,2-Difluoroethyl)-3-(4-{[3-(2-methoxyethyl)-3H-imidazo[4,5-b]pyridin-2-yl]oxy}phenyl)-1H-pyrazolo[4,3-b]pyridine]

— US9029536B2, “Fused heterocyclic compounds” (Takeda Pharmaceutical Company Limited, priority 2010, dated 2015)
